These results are taken from patent US3952061A, “Method of isomerizing humulone to isohumulone by catalytic acceleration with metal salts” (Atlantic Research Institute Limited, priority 1967, dated 1976).

Data set [1] is classed as physicochemical.
Protocol: The acceleration of the isomerization in accordance with the present invention is particularly striking at pH values of between 4 and 8. […] For the characterization of this acceleration of the conversion of humulone to isohumulone, reaction-kinetic experiments at different temperatures are shown in the accompanying figures. As reaction media there is used an 0.1 and 0.025 molar sodium acetate solution to which there are added in each case the metal salts in concentrations of 10^^-3 mol/liter and 10^^-4 mol/liter, respectively. Furthermore, pure metal salt solutions of higher concentration (0.025 mol/liter) (FIG. 2) of different pH were also used for the conversion of the humulone.
By way of comparison, the slow isomerization reaction in pure phosphate buffers is also recorded. It should be emphasized that the sodium acetate in the reaction solutions is not necessary for the reaction itself, but merely serves to maintain the pH constant. […] For FIGS. 1 and 2, the logarithm of the humulone extinction measured in a spectral photometer was plotted against the reaction time (in accordance with the law of Lambert and Beer, the extinction is directly proportional to the concentration).
The next data set concerns tubercular bacteria. The following applies: tests in vitro; cited from earlier work.

Like-named read-outs stand apart in the source and are kept apart here.

As for humulone, the Half-Life is 22 min in data set [1] (acetate buffer + cacl2, pH 8); 5.9 min in data set [1] (acetate buffer + cdcl2, pH 7); 7.3 min in data set [1] (acetate buffer + mgcl2, pH 7.5); 2.6 min in data set [1] (acetate buffer + mgcl2, pH 8); 3.2 min in data set [1] (acetate buffer + mncl2, pH 7.5); 2.5 min in data set [1] (acetate buffer + niso4, pH 6.5). The Half-Life in data set [1] (acetate buffer, pH 7) was determined as 360 min; in data set [1] (phosphate buffer, pH 5.5) it was 120 min. Further, the Half-Life about (bacl2 solution, pH 6.9) is ~9 min; the Half-Life about (cacl2 solution, pH 6.6) is ~2 min; the Half-Life about (cecl3 solution, pH 4.2) was ~10 min; the Half-Life about (niso4 solution, pH 4.7) is ~0.7 min; the Half-Life about (phosphate buffer, pH 5.5) was ~100 min; the Half-Life about (phosphate buffer, pH 7.2) was ~100 min.
With `CC(C)=CCC(=O)C1(O)C(O)=C(C(=O)CC(C)C)C(=O)C1CC=C(C)C` (stereo not drawn) [isohumulone], the “activity compared with Conteben” value in the data set on tubercular bacteria is reported as “practically just as active as Conteben”.
